Reference: patent US9227982B2 (NOVARTIS AG, priority 2011, dated 2016)

What was measured:
[1] = system: Non-small lung cancer ABC-1 cells; assay: Cellular proliferation assay (CellTiter-Glo) in ABC-1 cells; format: cell-based; details: Homo sapiens, 72 h, 3 days of compound treatment
Method: Cellular Proliferation Assay to Determine Compound Inhibition of Cancer Cell Growth
Non-small lung cancer ABC-1 cells were plated at 5000 cells per well in 96-well plates and treated with 8 serial compound dilutions starting from 10 μM as the highest concentration. Viable cells were measured after 3 days of compound treatment using the CellTiter-Glo assay (Promega, G7570). Assay was performed following the manufacture protocol.

[2] = system: Axin2 protein; assay: Cellular ELISA assay of Axin2 protein stabilization in SW480 cells; format: cell-based; details: Homo sapiens, 24 hrs treatment, read-out: Axin AC50
Method: Cellular ELISA Assay to Determine Compound Effect on Stabilizing the Axin2 Protein
Compound activity in stabilizing the Axin2 protein was measured by Sandwich Enzyme-Linked Immuosorbent (ELISA) assay in the colorectal cell line SW480. 30,000 SW480 cells were seeded per well in 96-well plate and incubated overnight prior to compound treatment. Cells were then treated with compounds in 6-point dilution starting at 10 μM for 24 hrs. Cells were then washed with 100 μL of cold Phosphate Buffer Saline (PBS), and lysed in 125 μl of cold 1× lysis buffer (Cell Signaling Technology, 9803) supplemented with Protease inhibitor (Roche, 11836170) and Phosphatase inhibitors (Sigma, P2850, P5726). For the ELISA assay, anti Axin-2 capture antibody (Strategic Diagnostics) antibody was diluted to a concentration of 1 μg/ml (1:1000) in Carbonate Coating buffer, pH 9.2 (Sigma, C3041-50CAP). 100μ of the diluted anti Axin-2 capture antibody per well was then used to coat the 96-well ELISA plate (Thermo Electron Corp., MicroLite 1 flat bottom plate #7571) overnight at 4° C. Plates were then washed three times with 300 of wash solution, PBST20 (PBS+0.05% Tween), and blocked with 300 μl/well 1% BSA/PBS (BSA, Millipore Probumin #82-045-1) for 1.5 hours at room temperature while shaking gently. After blocking, plates were then washed three times with 300 of wash solution. 100 μL of prepared SW480 cell lysate was then added to each well and incubated at room temperature for 2 hours while shaking gently. After washing, 100 μL of Biotinylated anti-Axin2 antibody (CST, 2151) was added to each well and incubated room temperature for 2 hours. 100 μL of Streptavidin-HRP (R&D systems, DY998) diluted 1:200 in 1% BSA/PBS was then added in each well and incubate for 30 mins at R/T in the dark.

[3] = target: human tankyrase 1 PARP catalytic domain, TNKS1P (Homo sapiens (Human), UniProt O95271); assay: TNKS1 autoparsylation enzymatic assay (LC/MS detection of nicotinamide); format: biochemical; details: 20 nM enzyme, 250 μM β-NAD+, 60 min, read-out: TNKS1 AP IC50
Excerpt: (§1) The human tankyrase 1 PARP catalytic domain, TNKS1P, was cloned into a pDONR221 vector using the Invitrogen Gateway Technology. This entry clone was then subcloned into the destination vector pDEST20 to obtain the N-terminal Glutathione S-transferase (GST)-tagged fusion protein. GST-TNKS1P was then expressed in Sf21 cells using the Invitrogen baculovirus expression system (Invitrogen-Bac-to-Bac® Baculovirus Expression System, Version D). The protein was purified by a GSTrap column (GE Healthcare). The N-terminal GST-tagged tankyrase 2 protein PARP domain, TNKS2P, was cloned, expressed, and purified in a similar manner. Human PARP1 (Cat. No. 4668-100-01) and activated DNA (Cat. No. 4671-096-06) were purchased from Trevigen, Inc. PARP2 (Cat. No. ALX-201-064-C020) was purchased from Alexis Biochemical.
The % Inhibition was calculated as: (Control−Sample)/(Control−Background)*100. “Control” is the average value of 8 wells without compound; and “Background” is the average of 8 wells mixed with 5× quenching solution measured prior to initiation of the reaction.

[4] = target: PARP2 (Mus musculus (Mouse), UniProt O88554); assay: PARP2 autoparsylation enzymatic assay (LC/MS detection of nicotinamide); format: biochemical; details: 20 nM enzyme, 250 μM β-NAD+, 60 min
Excerpt: as §1, with “manner.” for “manner. Human PARP1 (Cat. No. 4668-100-01) and activated DNA (Cat. No. 4671-096-06) were purchased from Trevigen, Inc. PARP2 (Cat. No. ALX-201-064-C020) was purchased from Alexis Biochemical.”
The autoparsylation activity of the TNKS 1/2 or PARP1/2 enzymes was measured by the liquid chromatography-mass spectrometry (LC/MS) detection of nicotinamide as readout. Compound activity in inhibiting the TNKS and PARP autoparsylation was evaluated by IC50 measurements. […] For the background control wells, 10 μL of the 5× quenching solution per well was added prior to the addition of β-NAD^+. The % Inhibition was calculated as: (Control−Sample)/(Control−Background)*100.

[5] = system: Herpes Simplex Virus (HSV); details: cited from earlier work

Chain of human tankyrase 1 PARP catalytic domain, TNKS1P (O95271 1112-1317): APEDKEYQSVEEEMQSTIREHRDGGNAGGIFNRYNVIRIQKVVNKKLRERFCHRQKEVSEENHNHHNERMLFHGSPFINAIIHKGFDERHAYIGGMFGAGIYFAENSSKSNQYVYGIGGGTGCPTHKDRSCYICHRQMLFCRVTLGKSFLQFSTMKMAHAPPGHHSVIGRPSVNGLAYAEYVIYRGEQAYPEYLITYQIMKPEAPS
Chain of PARP2 (O88554 whole entry): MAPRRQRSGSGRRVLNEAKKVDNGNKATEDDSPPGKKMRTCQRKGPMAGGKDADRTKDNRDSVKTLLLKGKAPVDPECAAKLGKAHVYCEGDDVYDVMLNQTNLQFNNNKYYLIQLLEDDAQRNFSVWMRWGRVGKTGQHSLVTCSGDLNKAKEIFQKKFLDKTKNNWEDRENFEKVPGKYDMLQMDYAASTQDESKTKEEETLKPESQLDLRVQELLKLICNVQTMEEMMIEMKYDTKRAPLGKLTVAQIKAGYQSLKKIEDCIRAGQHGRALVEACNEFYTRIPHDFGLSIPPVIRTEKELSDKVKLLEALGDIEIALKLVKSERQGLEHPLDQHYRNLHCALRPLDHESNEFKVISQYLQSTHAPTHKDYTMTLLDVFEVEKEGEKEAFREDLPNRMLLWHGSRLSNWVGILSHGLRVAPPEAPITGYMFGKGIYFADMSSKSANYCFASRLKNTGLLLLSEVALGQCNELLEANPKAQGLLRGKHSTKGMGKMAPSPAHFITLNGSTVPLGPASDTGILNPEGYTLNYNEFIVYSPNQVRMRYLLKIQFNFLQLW

Which IC50 [1] does the source give for O=C(CCc1cccc(O)c1)N(Cc1nc2c(c(=O)[nH]1)COCC2)Cc1cccs1 [Example 7, 3-(3-Hydroxy-phenyl)-N-(4-oxo-3,5,7,8-tetrahydro-4H-pyrano[4,3-d]pyrimidin-2-ylmethyl)-N-thiophen-2-ylmethyl-propionamide] here?
Its IC50 is over 10 µM.

What about the AC50 [2] of the same molecule?
Its AC50 is over 10 µM.

And the IC50 [3]?
Its IC50 is 1.02 ± 0.003 µM.

With O=C(CCc1ccccc1)N(Cc1nc2c(c(=O)[nH]1)COCC2)Cc1cccs1 [Example 1] as the molecule, how does the IC50 [1] read?
Its IC50 is over 10 µM.

And the AC50 [2]?
The AC50 was over 10 µM.

What about the IC50 [3] of the same molecule?
Its IC50 is 1.15 ± 0.02 µM.

What does the source list for “N-((4-0xo-4,5,7,8-tetrahydro-3H-pyrano[4,3-d]pyrimidin-2-yl)methyl)-3-phenyl-N-(thiophen-3-ylmethyl)propanamide [Example 18]”?
IC50 [4]: 10.4 ± 0.8 µM; IC50 [3]: 5.17 ± 0.46 µM

Which IC50 [1] does the source give for O=C(CCc1ccc(F)cc1)N(Cc1nc2c(c(=O)[nH]1)COCC2)Cc1cccs1 [Example 2, 3-(4-Fluoro-phenyl)-N-(4-oxo-3,5,7,8-tetrahydro-4H-pyrano[4,3-d]pyrimidin-2-ylmethyl)-N-thiophen-2-ylmethyl-propionamide] here?
The IC50 was over 10 µM.

And the AC50 [2]?
The AC50 was 8.2 ± 0.3 µM.

And the IC50 [3]?
The IC50 was 0.299 ± 0.026 µM.

With O=C(CCc1ccccc1F)N(Cc1nc2c(c(=O)[nH]1)COCC2)Cc1cccs1 [Example 4, 3-(2-Fluoro-phenyl)-N-(4-oxo-3,5,7,8-tetrahydro-4H-pyrano[4,3-d]pyrimidin-2-ylmethyl)-N-thiophen-2-ylmethyl-propionamide] as the molecule, how does the IC50 [1] read?
Its IC50 is 8.74 µM.

And the AC50 [2]?
Its AC50 is 4.1 ± 2.1 µM.

And the IC50 [3]?
Its IC50 is 0.271 ± 0.045 µM.

Which HSV viral growth [5] does the source give for Oc1nc(-c2ccc(C(F)(F)F)cc2)nc2c1CSCC2 [XAV939] here?
The HSV viral growth was “decreased viral growth”.

And the “HSV viral protein expression” value [5]?
The value was “suppressed HSV viral protein expression”.
